In experiment [1] the target is T1, human GLP-1R (Homo sapiens, UniProt P43220, G168S).
T1 construct: expressed in transfected cells
The experiment is described as follows: CHO GLP-1R Clone H6 - Assay 1 (HTRF cAMP agonist assay). Format: cell-based. The settings on record: for EC50: CHO Clone H6, high GLP-1R density, cAMP, geometric mean; for Emax / Assay 1 Emax (%): CHO Clone H6, relative to saturating full agonist GLP-1 7-36 (1 μM), arithmetic mean. A digest of the protocol: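 CHO Clone H6 cells stably expressing human GLP-1R (G168S) were plated 48 h, then given compound for 30 min at 37° C in HBSS/0.1% BSA/HEPES with 100 μM IBMX and 1% DMSO. cAMP was measured by HTRF against a standard curve.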
A general note: TR-FRET usually uses a lanthanide donor and a delayed reading to cut background.

The target in experiment [2] is T2, human GLP-1R (Homo sapiens, UniProt P43220, L260F).
T2 construct: expressed in transfected cells; host or cells: CHO Flp-In T-REx, clonal line C6 (pcDNA5-FRT-TO)
T2 sequence (P43220 24-463 L260F): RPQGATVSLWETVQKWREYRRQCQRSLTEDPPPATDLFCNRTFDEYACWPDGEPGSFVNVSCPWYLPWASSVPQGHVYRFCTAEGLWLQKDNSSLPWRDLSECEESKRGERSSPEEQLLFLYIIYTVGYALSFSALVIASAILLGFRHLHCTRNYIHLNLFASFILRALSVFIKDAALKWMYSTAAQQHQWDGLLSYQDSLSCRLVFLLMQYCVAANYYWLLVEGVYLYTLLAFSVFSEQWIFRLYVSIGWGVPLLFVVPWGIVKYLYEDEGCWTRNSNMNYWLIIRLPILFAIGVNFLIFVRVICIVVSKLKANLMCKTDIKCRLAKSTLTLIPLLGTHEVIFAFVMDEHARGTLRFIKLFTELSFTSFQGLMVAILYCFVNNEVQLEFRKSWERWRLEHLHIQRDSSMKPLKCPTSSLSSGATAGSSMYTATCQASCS
As to the kind of experiment: CHO GLP-1R Clone C6 - Assay 2 (HTRF cAMP agonist assay). Format: cell-based. The settings on record: for EC50: CHO clone C6, low GLP-1R density, cAMP, geometric mean.

The mark [3] stands for this setting: CHO clone C6, relative to saturating full agonist GLP-1 (1 μM), arithmetic mean.

Each structure is given as a SMILES string. Structures can show the parent of a compound that is named as a salt. Where only a bound is given, the exact number is not on record here.

T1 sequence (P43220 24-463 G168S): as the sequence (P43220 24-463 L260F) above, with G145S, F237L counted along it

Turning to `N#Cc1ccc(COc2ncccc2C2CCN(Cc3nc4ccc(C(=O)O)cc4n3C[C@@H]3CCCO3)CC2)c(F)c1` [Example 13, 2-[(4-{2-[(4-cyano-2-fluorobenzyl)oxy]pyridin-3-yl}piperidin-1-yl)methyl]-1-[(2S)-tetrahydrofuran-2-ylmethyl]-1H-benzimidazole-6-carboxylic acid, trifluoroacetate salt], the half-maximal effective concentration (EC50) (usually the concentration needed to bring the measured effect to its halfway point) came to 6 nM at human GLP-1R [1] and 270 nM at human GLP-1R [2]. For the same compound, the Emax (usually the size of the effect at its maximum, as opposed to the concentration needed) at human GLP-1R [1] was determined as 80%; at human GLP-1R [2] (setting [3]), 91%.
As to `COCCn1c(C2CC23CCN(c2cccc(OCc4ccc(Cl)cc4F)n2)CC3)nc2ncc(C(=O)O)cc21` (single isomer, unassigned) [Example 49, 2-(6-{6-[(4-chloro-2-fluorobenzyl)oxy]pyridin-2-yl}-6-azaspiro[2.5]oct-1-yl)-1-(2-methoxyethyl)-1H-imidazo[4,5-b]pyridine-6-carboxylic acid, ENT-2], the EC50 was found to be 18 nM at human GLP-1R [1] and 290 nM at human GLP-1R [2]. Further, the “Assay 1 Emax (%)” value at human GLP-1R [1] stood at 75%. On human GLP-1R [2] (setting [3]), the Emax came out at 87%.
Turning to `O=C(O)c1ccc2nc(CN3CCC(c4nccnc4OCc4ccc(Cl)cc4F)CC3)n(C[C@@H]3CCO3)c2c1` [Example 19, Ammonium 2-[(4-{3-[(4-chloro-2-fluorobenzyl)oxy]pyrazin-2-yl}piperidin-1-yl)methyl]-1-[(2S)-oxetan-2-ylmethyl]-1H-benzimidazole-6-carboxylate], the half-maximal effective concentration (EC50) on human GLP-1R [1] came to 5.3 nM; on human GLP-1R [2] it was 42 nM. The Emax at human GLP-1R [1] came out at 90%; at human GLP-1R [2] (setting [3]), 94%.
Taken in the same sequence, the figures for `O=C(O)c1ccc2nc(C3CC34CCN(c3ncc(F)c(OCc5ccc(Cl)cc5F)n3)CC4)n(CC3CCO3)c2c1` (single isomer, unassigned) [Example 50] were 0.71 nM, 19 nM, 78% and 80%.
On the same counts, the results for `O=C(O)c1ccc2nc(CN3CCC(c4cccnc4OCc4ccc(Cl)cc4F)CC3)n(C[C@@H]3CCO3)c2c1` [Example 1, Ammonium 2-[(4-{2-[(4-chloro-2-fluorobenzyl)oxy]pyridin-3-yl}piperidin-1-yl)methyl]-1-[(2S)-oxetan-2-ylmethyl]-1H-benzimidazole-6-carboxylate] are 1 nM, 20 nM, 84% and 95%.
On the same counts, the results for `Cn1cncc1Cn1c(CN2CCC(c3nccnc3OCc3ccc(Cl)cc3F)CC2)nc2ccc(C(=O)O)cc21` [Example 26, 2-[(4-{3-[(4-chloro-2-fluorobenzyl)oxy]pyrazin-2-yl}piperidin-1-yl)methyl]-1-[(1-methyl-1H-imidazol-5-yl)methyl]-1H-benzimidazole-6-carboxylic acid, trifluoroacetate salt] are 5.1 nM, 38 nM, 86% and 86%.
With `O=C(O)c1ccc2nc(CC3CCC(c4cccc(OCc5ccc(Cl)cc5F)n4)CC3)n(C[C@@H]3CCO3)c2c1` (single isomer, unassigned; isomer 1) [Example 79], the EC50 at human GLP-1R [1] is greater than 12000 nM; on human GLP-1R [2] it was greater than 20000 nM.
Consider `N#Cc1ccc(COc2nc(N3CCC4(CC3)CC4c3nc4ccc(C(=O)O)cc4n3CC3CCO3)ccc2F)c(F)c1` (single isomer, unassigned; ent-2) [Example 53], for which, on human GLP-1R [1], a half-maximal response (EC50) required 0.57 nM and the “Assay 1 Emax (%)” value is 83%. This compound had a 50% effective concentration (EC50) at human GLP-1R [2] of 14 nM. Also, the “Assay 2 Emax (%)” value at human GLP-1R [2] (setting [3]) was found to be 90%.
On to `O=C(O)c1ccc2nc(CN3CCC(c4ccnc(OCc5ccc(Cl)cc5F)n4)CC3)n(C[C@@H]3CCO3)c2c1` [Example 62, 2-[(4-{2-[(4-Chloro-2-fluorobenzyl)oxy]pyrimidin-4-yl}piperidin-1-yl)methyl]-1-[(2S)-oxetan-2-ylmethyl]-1H-benzimidazole-6-carboxylic acid], for which the concentration for a half-maximal effect (EC50) stood at 4.4 nM on human GLP-1R [1] and 110 nM at human GLP-1R [2]. The Emax on human GLP-1R [1] came out at 86%; on human GLP-1R [2] (setting [3]), 98%.

Values taken from patent US12331041B2, “GLP-1 receptor agonists and uses thereof” (Pfizer Inc., priority 2018, dated 2025).
